Laboratory results as given in patent US11484484B2, “Composition for alleviating skin barrier dysfunction” (LG HOUSEHOLD & HEALTH CARE LTD., priority 2018, dated 2022).
“Also recorded” adds a separate entry of the source.

How the values were obtained:
[1] = system: HaCaT cells introduced with the GFP-LC3 vector; experiment: Screening for autophagy activation: GFP-LC3 puncta quantification; format: cell-based, human; conditions: for proportion of cells with increased GFP-LC3 puncta vesicles: fluorescence microscopy
Experimental: A GFP (green fluorescence protein)-conjugated microtubule-binding protein 1 light chain 3 (LC3) expression vector (Cell Biolabs, USA) was introduced into HaCaT cells using Lipofectamine 2000 (Invitrogen, USA), which is a gene transfer reagent, and the resultant was cultured for 12 hours in a condition containing 10% FBS and then treated with candidate compounds expected to promote autophagy, which was selected from a library of single compounds derived from natural substances, at each concentration in the medium. Subsequently, the evaluation was performed by fluorescence microscopy (Leica Microsystems, USA). In order to quantify the induction of autophagy, 100 GFP-positive cells in which puncta autophagosomes were formed (punctae=5) were counted using fluorescence microscopy. In order to improve the barrier function by promoting epidermal differentiation through the activation of autophagy, which is reduced due to aging or external stimuli, a search was conducted starting from a library of single compounds derived from natural substances for those that promote autophagic activity of keratinocytes. Specifically, as in the method of Example 3, candidate compounds expected to promote autophagy were treated to HaCaT cells introduced with the GFP-LC3 vector. Thereafter, the number of cells with increased GFP-LC3 puncta vesicles in the cytoplasm was increased as GFP was conjugated to LC3, which was converted into a membrane-bound form when autophagy was induced in each cell, was compared.

HaCaT cells = format: cell-based; conditions: 10 μg/mL, 50 μg/mL and 100 μg/mL
LC3-II = LC3-II production by western blotting in keratinocytes; format: cell-based, human; conditions: HaCaT cells
Text: (§1) HaCaT cells were inoculated into a 60 mm plate at a concentration of 8×10^5 cells and independently treated with hydroxycinnamic acid, isoamyl acetate, and betaine the next day, and then the cells were eluted with a 5× lysis buffer to obtain proteins. Cell debris was removed by centrifugation and quantified using a BCA protein assay kit (Pierce, USA). The cell-extracted proteins were isolated using a 4%-15% SDS-PAGE gel (Bio-Rad, USA) and transferred to a nitrocellulose membrane (Life Technologies, New Zealand). The cells were then blocked with a TBST buffer containing 3% BSA for 1 hour and thereupon reacted in a buffer solution containing primary antibodies at 4° C. for 1 day. The membrane was washed with TBST, reacted with peroxidase-conjugated secondary antibodies, and then colored using enhanced chemiluminescence (Amersham, UK), and the immune-reactive bands were confirmed with the Fusion FX 5 image system (Vilber Lourmat, France).
The cytotoxicity of betaine on keratinocytes was confirmed, and the results of Experimental Example 1 were confirmed by the western blotting analysis of Example 4 to determine the degree of production of LC3-II converted as it entered into the double membranes of the autophagosomes. […] Additionally, the cells were treated with 50 μg/mL betaine and the amount of LC3-II conversion per hour was observed.

LC3-II, p62/SQSTM1 = experiment: Autophagosome synthesis mechanism: co-treatment with bafilomycin A1, LC3-II and p62 western blotting; format: cell-based, human
Text: as §1
Therefore, in order to investigate a mechanism by which the autophagosomes are increased by way of betaine treatment, the cells were treated with bafilomycin A1 (Baf. A1), which is known as a lysosomal activity inhibitor, together with betaine, and the degree of LC3-II production was confirmed by western blotting analysis.

AKT-mTOR-S6 pathway = experiment: Phosphorylation of AKT-mTOR-S6 pathway by western blotting; format: cell-based, human; conditions: HaCaT cells
Text: as §1
In previous studies, betaine—homocysteine methyltransferase (BHMT) has been reported to reduce the amount of homocysteine in a betaine-dependent manner. In one study, homocysteine was reported to promote the activity of mTORC1, an enzyme that inhibits autophagy. Thus, in order to find a mechanism by which autophagy is promoted by betaine, an experiment was conducted to identify related upstream signaling factors. […]

[2] = system: reconstructed human epidermis model (Neoderm-E); experiment: LC3-II production in 3D artificial skin model; format: cell-based; conditions: 1% cream formulation, after 24 hours
Experimental: (§2) A reconstructed human epidermis model (Neoderm-E, Tego Science, Korea) was transferred to a 6-well plate and stabilized in 2 mL of a growth medium (Tego Science, Korea) for 24 hours, and the cream-type hydroxycinnamic acid, isoamyl acetate, and betaine were applied to the artificial skin at each concentration. After culturing for 24 hours, the hydroxycinnamic acid, isoamyl acetate, and betaine cream applied on the artificial skin were washed with phosphate buffer saline (PBS), and then the tissue was disrupted using a RIPA buffer (50 mM Tris-HCl, pH 7.4, 150 mM NaCl, 1% NP-40) containing Protease Inhibitor Cocktails (ThermoFisher Scientific, USA) by sonication. The tissue-extracted proteins were analyzed for the autophagic activity of keratinocytes in the tissue by western blotting analysis. 1% creams of hydroxycinnamic acid, isoamyl acetate, and betaine were applied on the artificial skin, followed by H&E staining after 1 week to confirm the increase in thickness of the epidermis.
In order to confirm whether the differentiation in the epidermis is promoted by the effect of promoting autophagy by way of betaine, hydroxycinnamic acid, and isoamyl acetate, a 3D artificial skin model was used as in Example 5. […] After 24 hours, the degree of LC3-II production was measured through western blotting analysis to determine whether autophagy in the epidermis was promoted.

[3] = system: reconstructed human epidermis model (Neoderm-E); experiment: Epidermal thickness in 3D artificial skin model; format: cell-based; conditions: 1% cream formulation; for Increase relative to Control: epidermal thickness ratio
Experimental: as §2
Next, the cream formulations of 1% betaine, 1% hydroxycinnamic acid, and 1% isoamyl acetate were applied to the artificial skin, and changes in the thickness of the epidermis were measured after […] staining of the artificial skin tissue.

[4] = general description of the substance; cited from earlier work

Row | SMILES | number of cells with increased GFP-LC3 puncta vesicles, increase compared to the untreated group [1] | proportion of cells with increased GFP-LC3 puncta vesicles [1] | cytotoxicity (HaCaT cells) | amount of LC3-II conversion, from 12 hours (LC3-II; 50 μg/mL, 12 hours) | amount of LC3-II conversion, after 24 hours (LC3-II; 50 μg/mL, 24 hours) | amount of LC3-II conversion, until 6 hours (LC3-II; 50 μg/mL, until 6 hours) | amount of LC3-II by concentration (LC3-II; 10, 50, 100 μg/mL, western blotting) | amount of p62/SQSTM1 (p62) protein (LC3-II, p62/SQSTM1; betaine treatment, western blotting) | amount of LC3-II with bafilomycin A1 together with betaine compared to betaine alone (LC3-II, p62/SQSTM1; co-treatment with lysosomal activity inhibitor bafilomycin A1) | mTOR signals (degree of phosphorylation of the AKT-mTOR-S6 pathway) (AKT-mTOR-S6 pathway) | autophagy (degree of LC3-II production) in the epidermis [2] | Thickness of Epidermis [3] | epidermal thickness increase compared to the control group [3] | Increase relative to Control [3] | solubility [4]
1 | C[N+](C)(C)CC(=O)[O-] [betaine, trimethylglycine] | 18.75% | 25% | no cytotoxicity was observed | the amount of conversion increased | the highest conversion was observed; also recorded: conversion mostly occurred | a significant increase was not observed | increased as the concentration increased | reduced; also recorded: decrease | further increased | not possible to observe a significant difference; also recorded: no significant difference | autophagy was increased | 74 μm | 19% | 1.19 | –
2 | CC(=O)OCCC(C)C [isoamyl acetate] | – | 16.4% | – | – | – | – | – | – | – | – | autophagy was increased | 85 μm | 37% | 1.37 | not well soluble in water, but soluble in alcohol and organic solvents
